Like-named read-outs stand apart in the source and are kept apart here.
Columns and labels:
EGFR (L858R/C797S) = EGFR (L858R/C797S) (Homo sapiens, UniProt P00533, C797S/L858R); assay: MSA (Mobility Shift Assay) kinase activity, EGFR-L858R-C797S; assay type: biochemical
Description: (§1) The MSA (Mobility Shift Assay) method was used to detect the effects of small molecule inhibitors on the kinase activity of EGFR wild type and its mutants (EGFR^wt, EGFR-L858R, EGFR-L858R-T790M-C797S, EGFR-L858R-C797S).
(§2) 10 μL of kinase solution at 2.5 times the final concentration was added to the compound wells and positive control Max wells; 10 μL of 1x kinase buffer was added to the negative control Min wells. The mixture was centrifuged at 1000 rpm for 30 seconds, and the reaction plate was shaken to mix the solution well and then incubated at room temperature for 10 minutes. A mixed solution of ATP and kinase substrate at 5/3 times the final concentration was prepared in 1x kinase buffer. 15 μL of a mixed solution of ATP and substrate at 5/3 times the final concentration was added to initiate the reaction. The 384-well plate was centrifuged at 1000 rpm for 30 seconds, and shaken to mix the solution well and then incubated at room temperature for the corresponding time. 30 μL of stop detection solution was added to stop the kinase reaction, and the mixture was centrifuged at 1000 rpm for 30 seconds, and then to mixed well by shaking. The conversion rate was read using Caliper EZ Reader.
(§3) wherein: Conversion %_sample is the conversion rate reading of the sample; Conversion %_min is the mean of the negative control wells, representing the conversion rate reading of the wells without enzyme activity; Conversion %_max is the mean of the positive control wells, representing the conversion rate reading of the wells without compound inhibition.
(§4) The log (inhibitor) vs. response —Variable slope of the analysis software GraphPad Prism 5 was used to fit the dose-effect curve, where the log value of the concentration was used as the X-axis and the percentage inhibition rate was used as the Y-axis, to obtain the IC50 value of each compound on the enzyme activity.
(§5) The calculation formula is Y=Bottom+(Top-Bottom)/(1+10^((Log IC50−X)*Hill Slope))

EGFR (L858R/T790M/C797S) = EGFR (L858R/T790M/C797S) (Homo sapiens, UniProt P00533, C797S/L858R/T790M); assay: MSA (Mobility Shift Assay) kinase activity, EGFR-L858R-T790M-C797S; assay type: biochemical
Description: as §1, §2, §3, §4, §5

[1] = target: Ba/F3-FL-EGFR-L858R-T790M-C797S (Homo sapiens, UniProt P00533, T790M/C797S/L858R, cells depend on it); assay: CellTiter-Glo proliferation, Ba/F3-FL-EGFR-L858R-T790M-C797S; assay type: cell-based; settings: 72 hours, read-out: Ba/F3-FL-EGFR-L858R-T790M-C797S IC50/nM
Procedure, shortened: (§6)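 Ba/F3 lines dependent on the indicated EGFR variants were treated with compounds at a final DMSO concentration of 0.1% at 37 °C, 5% CO2. Viability was read by CellTiter-Glo luminescence, and inhibition rate was normalised to DMSO-treated cells (max) and medium-only wells (min). IC50 came from inhibition curves.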

Ba/F3-FL-EGFR = target: T1, Ba/F3-FL-EGFR (Homo sapiens, UniProt P00533); assay: CellTiter-Glo proliferation, Ba/F3-FL-EGFR; assay type: cell-based; settings: 72 hours, read-out: Ba/F3-FL-EGFR IC50/nM
T1 construct: FL read as full length
Procedure, shortened: as §6

[2] = test system: Ba/F3-FL-EGFR-del19-C797S; assay: CellTiter-Glo proliferation, Ba/F3-FL-EGFR-del19-C797S; assay type: cell-based; settings: proliferation, 72 hours, CellTiter-Glo, read-out: Ba/F3-FL-EGFR-del19-C797S IC50/nM
Procedure, shortened: as §6

EGFR (L858R) = EGFR (L858R) (Homo sapiens, UniProt P00533, L858R); assay: MSA (Mobility Shift Assay) kinase activity, EGFR-L858R; assay type: biochemical
Description: as §1, §2, §3, §4, §5

EGFR (wild-type) = EGFR (wild-type) (Homo sapiens, UniProt P00533); assay: MSA (Mobility Shift Assay) kinase activity, EGFR wild type; assay type: biochemical; settings: read-out: EGFR wt/ IC50/nM
Description: as §1, §2, §3, §4, §5

[3] = target: T2, Ba/F3-TEL-EGFR-L858R-C797S (Homo sapiens, UniProt P00533, C797S/L858R, cells depend on it); assay: CellTiter-Glo proliferation, Ba/F3-TEL-EGFR-L858R-C797S; assay type: cell-based; settings: 72 hours, read-out: Ba/F3-TEL-EGFR-L858R-C797S IC50/nM
T2 construct: fused on or other part: N-terminal TEL (ETV6) oligomerising part fused to the EGFR intracellular/kinase part; P41212 (Transcription factor ETV6)
Procedure, shortened: as §6

Ba/F3-FL-EGFR-L858R = Ba/F3-FL-EGFR-L858R (Homo sapiens, UniProt P00533, L858R, cells depend on it); assay: CellTiter-Glo proliferation, Ba/F3-FL-EGFR-L858R; assay type: cell-based; settings: 72 hours, read-out: Ba/F3-FL-EGFR-L858R IC50/nM
Procedure, shortened: as §6

T2 sequence (P00533 whole entry C797S/L858R, the tested form may be a part): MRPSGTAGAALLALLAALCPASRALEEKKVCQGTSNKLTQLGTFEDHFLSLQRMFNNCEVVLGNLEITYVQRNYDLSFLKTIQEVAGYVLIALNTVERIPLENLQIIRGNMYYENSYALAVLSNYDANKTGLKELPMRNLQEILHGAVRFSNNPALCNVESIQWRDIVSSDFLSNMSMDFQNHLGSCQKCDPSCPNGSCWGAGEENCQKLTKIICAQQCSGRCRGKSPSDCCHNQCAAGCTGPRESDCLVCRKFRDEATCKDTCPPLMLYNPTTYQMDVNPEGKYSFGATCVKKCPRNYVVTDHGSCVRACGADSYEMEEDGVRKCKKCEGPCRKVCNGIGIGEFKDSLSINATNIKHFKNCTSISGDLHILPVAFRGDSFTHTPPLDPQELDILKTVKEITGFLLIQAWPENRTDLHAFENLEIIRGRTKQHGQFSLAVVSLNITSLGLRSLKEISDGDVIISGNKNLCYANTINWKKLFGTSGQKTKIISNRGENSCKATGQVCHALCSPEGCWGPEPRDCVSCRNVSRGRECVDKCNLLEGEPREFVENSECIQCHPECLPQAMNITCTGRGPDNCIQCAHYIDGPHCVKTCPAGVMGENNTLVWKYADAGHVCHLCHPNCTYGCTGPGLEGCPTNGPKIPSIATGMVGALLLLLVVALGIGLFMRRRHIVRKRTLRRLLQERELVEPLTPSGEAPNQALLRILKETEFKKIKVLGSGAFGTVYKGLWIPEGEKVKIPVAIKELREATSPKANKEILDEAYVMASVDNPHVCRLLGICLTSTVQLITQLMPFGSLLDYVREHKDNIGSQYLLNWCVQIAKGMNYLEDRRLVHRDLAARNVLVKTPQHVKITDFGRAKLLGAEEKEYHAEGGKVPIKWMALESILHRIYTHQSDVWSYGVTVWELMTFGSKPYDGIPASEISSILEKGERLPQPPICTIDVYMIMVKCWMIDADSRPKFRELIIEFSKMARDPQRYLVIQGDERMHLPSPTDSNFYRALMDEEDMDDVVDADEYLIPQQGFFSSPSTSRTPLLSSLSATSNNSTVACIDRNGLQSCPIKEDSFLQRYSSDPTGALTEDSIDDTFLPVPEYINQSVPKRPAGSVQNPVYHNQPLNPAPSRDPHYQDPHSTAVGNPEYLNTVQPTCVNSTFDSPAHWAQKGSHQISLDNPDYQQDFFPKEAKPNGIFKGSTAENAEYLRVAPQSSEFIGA
Ba/F3-FL-EGFR-L858R, sequence (P00533 whole entry L858R): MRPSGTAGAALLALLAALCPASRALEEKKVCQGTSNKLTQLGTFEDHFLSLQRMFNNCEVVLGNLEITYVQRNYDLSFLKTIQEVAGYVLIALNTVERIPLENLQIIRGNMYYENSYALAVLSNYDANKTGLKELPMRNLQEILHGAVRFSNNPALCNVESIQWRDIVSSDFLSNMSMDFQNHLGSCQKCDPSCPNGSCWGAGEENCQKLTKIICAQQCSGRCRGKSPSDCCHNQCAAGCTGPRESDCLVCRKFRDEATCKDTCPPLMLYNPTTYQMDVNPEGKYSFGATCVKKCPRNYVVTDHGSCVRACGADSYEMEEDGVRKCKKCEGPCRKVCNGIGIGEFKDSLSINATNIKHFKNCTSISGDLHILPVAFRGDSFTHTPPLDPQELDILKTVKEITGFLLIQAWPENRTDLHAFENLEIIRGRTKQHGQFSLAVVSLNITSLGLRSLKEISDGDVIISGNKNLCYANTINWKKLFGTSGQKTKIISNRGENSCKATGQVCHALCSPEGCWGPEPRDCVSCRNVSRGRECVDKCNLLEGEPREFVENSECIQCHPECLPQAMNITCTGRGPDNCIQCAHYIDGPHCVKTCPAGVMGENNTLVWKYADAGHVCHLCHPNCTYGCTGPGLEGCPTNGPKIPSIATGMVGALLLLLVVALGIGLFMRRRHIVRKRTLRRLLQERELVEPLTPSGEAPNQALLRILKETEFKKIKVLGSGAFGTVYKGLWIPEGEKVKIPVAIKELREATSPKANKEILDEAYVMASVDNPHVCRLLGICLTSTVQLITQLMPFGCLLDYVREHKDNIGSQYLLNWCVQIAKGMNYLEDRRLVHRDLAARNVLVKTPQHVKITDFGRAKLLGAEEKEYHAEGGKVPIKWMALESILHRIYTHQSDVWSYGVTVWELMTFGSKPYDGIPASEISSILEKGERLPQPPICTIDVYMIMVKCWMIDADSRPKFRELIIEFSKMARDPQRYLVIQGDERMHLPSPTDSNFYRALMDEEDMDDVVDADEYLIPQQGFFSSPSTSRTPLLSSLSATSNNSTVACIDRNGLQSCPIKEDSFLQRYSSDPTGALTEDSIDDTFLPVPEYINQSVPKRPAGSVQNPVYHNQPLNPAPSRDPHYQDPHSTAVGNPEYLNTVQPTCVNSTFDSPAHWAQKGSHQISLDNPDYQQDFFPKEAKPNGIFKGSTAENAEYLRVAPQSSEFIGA
EGFR (L858R/T790M/C797S), sequence (P00533 25-1210 T790M/C797S/L858R): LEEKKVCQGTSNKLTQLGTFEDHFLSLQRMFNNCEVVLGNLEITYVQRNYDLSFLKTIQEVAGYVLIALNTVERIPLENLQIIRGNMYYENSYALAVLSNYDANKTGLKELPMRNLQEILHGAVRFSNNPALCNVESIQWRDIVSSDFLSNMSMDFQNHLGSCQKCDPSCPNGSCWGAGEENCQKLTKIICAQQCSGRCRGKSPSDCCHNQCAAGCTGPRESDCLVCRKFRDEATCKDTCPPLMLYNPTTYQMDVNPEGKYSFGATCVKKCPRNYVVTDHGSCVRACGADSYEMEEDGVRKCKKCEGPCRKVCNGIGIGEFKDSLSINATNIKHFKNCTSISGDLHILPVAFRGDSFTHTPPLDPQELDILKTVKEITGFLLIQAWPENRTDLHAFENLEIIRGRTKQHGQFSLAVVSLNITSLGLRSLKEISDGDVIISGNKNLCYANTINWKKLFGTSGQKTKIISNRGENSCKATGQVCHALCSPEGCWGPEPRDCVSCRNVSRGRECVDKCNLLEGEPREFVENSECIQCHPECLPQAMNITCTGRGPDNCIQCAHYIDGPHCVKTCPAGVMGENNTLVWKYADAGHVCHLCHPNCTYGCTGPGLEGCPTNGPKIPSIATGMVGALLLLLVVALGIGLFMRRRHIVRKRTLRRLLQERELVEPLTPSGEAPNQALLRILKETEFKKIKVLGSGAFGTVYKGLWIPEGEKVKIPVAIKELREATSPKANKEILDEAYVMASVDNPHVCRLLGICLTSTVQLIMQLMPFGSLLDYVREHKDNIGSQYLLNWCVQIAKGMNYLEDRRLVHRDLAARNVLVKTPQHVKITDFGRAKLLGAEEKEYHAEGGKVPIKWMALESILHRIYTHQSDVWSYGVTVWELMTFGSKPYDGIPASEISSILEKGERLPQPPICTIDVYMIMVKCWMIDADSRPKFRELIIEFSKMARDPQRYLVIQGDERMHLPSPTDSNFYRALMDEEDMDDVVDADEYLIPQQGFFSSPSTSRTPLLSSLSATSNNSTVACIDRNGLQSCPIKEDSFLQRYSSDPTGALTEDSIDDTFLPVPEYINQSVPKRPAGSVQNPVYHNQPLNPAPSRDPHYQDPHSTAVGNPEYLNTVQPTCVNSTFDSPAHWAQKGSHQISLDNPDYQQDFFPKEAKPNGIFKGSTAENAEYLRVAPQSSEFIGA
EGFR (L858R), sequence (P00533 25-1210 L858R): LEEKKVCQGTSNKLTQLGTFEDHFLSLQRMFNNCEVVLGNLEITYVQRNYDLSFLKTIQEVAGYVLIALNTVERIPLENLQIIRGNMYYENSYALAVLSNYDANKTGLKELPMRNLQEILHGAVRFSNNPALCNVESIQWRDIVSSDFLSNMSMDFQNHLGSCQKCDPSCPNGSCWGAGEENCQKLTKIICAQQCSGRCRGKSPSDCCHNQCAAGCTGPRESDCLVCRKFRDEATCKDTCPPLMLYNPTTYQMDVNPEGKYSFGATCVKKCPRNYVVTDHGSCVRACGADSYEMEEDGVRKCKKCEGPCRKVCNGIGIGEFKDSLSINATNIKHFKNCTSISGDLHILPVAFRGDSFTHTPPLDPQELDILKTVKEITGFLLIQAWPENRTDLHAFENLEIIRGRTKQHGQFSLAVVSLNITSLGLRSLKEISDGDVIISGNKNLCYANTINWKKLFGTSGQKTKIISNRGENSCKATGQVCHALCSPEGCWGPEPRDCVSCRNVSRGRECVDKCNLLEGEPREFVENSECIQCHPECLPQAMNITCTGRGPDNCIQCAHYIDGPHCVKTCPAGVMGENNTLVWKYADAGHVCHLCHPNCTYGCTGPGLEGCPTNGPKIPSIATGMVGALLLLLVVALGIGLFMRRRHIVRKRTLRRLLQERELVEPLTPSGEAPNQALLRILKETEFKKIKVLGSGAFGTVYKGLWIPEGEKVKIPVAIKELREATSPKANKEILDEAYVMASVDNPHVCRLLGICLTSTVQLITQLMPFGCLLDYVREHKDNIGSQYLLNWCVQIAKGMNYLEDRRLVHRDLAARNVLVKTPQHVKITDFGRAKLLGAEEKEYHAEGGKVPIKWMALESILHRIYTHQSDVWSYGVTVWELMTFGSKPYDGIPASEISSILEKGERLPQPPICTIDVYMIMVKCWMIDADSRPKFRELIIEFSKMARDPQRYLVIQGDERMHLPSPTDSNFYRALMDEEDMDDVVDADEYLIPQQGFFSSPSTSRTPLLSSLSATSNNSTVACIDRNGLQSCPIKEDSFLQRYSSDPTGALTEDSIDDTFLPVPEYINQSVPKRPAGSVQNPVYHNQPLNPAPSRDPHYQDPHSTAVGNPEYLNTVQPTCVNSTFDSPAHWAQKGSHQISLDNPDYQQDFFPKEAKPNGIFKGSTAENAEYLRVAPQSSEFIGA

Row | IC50 (EGFR (L858R/C797S)) [nM] | IC50 (EGFR (L858R/T790M/C797S)) [nM] | GI50 [1] [nM] | GI50 (Ba/F3-FL-EGFR) [nM] | IC50 [2] [nM] | IC50 (EGFR (L858R)) [nM] | IC50 (EGFR (wild-type)) [nM] | GI50 [3] [nM] | GI50 (Ba/F3-FL-EGFR-L858R) [nM] | IC50 ([2]; 72 h) [nM] | SMILES
1 | 4.7 | 0.7 | 462 | 854 | 216 | 5.6 | 11.7 | 188 |  |  | CC(C)c1ccc(N2CC(CS(C)(=O)=O)C2)c2cnc(Nc3ccnc(-c4cn[nH]c4)n3)cc12 [Compound H3]
2 | 2.2 | 0.3 | 90 | 559 | 48 | 1.5 | 5.2 | 40 |  |  | CCCS(=O)(=O)n1cc(-c2nccc(Nc3cc4c(C(C)C)ccc(N5CC(CS(C)(=O)=O)C5)c4cn3)n2)cn1 [Compound H6]
3 | 7.2 | 0.34 | 219 | 1080 |  | 8.1 | 30.3 | 54 | 94 | 101 | CC(C)c1ccc(N2CC(CS(C)(=O)=O)C2)c2cnc(Nc3ccnc(-c4cnn(S(=O)(=O)C5CCOCC5)c4)n3)cc12 [Compound H10]
4 | 5.1 | 0.44 | 123 | > 10000 |  | 5.8 | 24.3 | 37 | 40 | 97 | CC(C)c1ccc(N2CC(CS(C)(=O)=O)C2)c2cnc(Nc3ccnc(-c4cnn(CC(F)(F)F)c4)n3)cc12 [Compound H11]
5 | 2.5 | 0.91 | 158 | 640 |  | 1.8 | 11.4 | 18 | 44 | 23 | CC(C)c1ccc(N2CC(CS(C)(=O)=O)C2)c2cnc(Nc3ccnc(-c4cnn(S(=O)(=O)C5CCC5)c4)n3)cc12 [Compound H13]
6 | 5 | 0.6 | 150 | 658 |  | 2.6 | 7.3 | 46 | 73 | 69 | CC(C)c1ccc(N2CC(CS(C)(=O)=O)C2)c2cnc(Nc3ccnc(-c4cnn(S(=O)(=O)C5(C)CC5)c4)n3)cc12 [Compound H18]
7 | 1.22 | 0.08 | 11 | 618 |  | 0.77 | 5.1 | 15 | 42 | 71 | CC(C)c1ccc(N2C[C@H](NS(C)(=O)=O)[C@H]2C)c2cnc(Nc3ccnc(N4CCC(O)C(F)C4)n3)cc12 (stereo partly drawn) [Compound P25]
8 | 7.6 | 0.18 | 38 | 2780 |  | 4.1 | 20.7 | 61 | 181 | 265 | CC(C)c1ccc(N2CC(NS(C)(=O)=O)C2)c2cnc(Nc3ccnc(N4CCC(O)C(C)(F)C4)n3)cc12 (stereo not drawn) [Compound P45]
9 | 9.3 | 0.61 | 271 | 3110 | 308 | 6.2 | 41.8 | 88 | 208 |  | CC(C)c1ccc(N2CC(NS(C)(=O)=O)C2)c2cnc(Nc3ccnc(N4CCC(O)C(C)(F)C4)n3)cc12 (stereo not drawn) [Compound P46]
10 | 4.2 | 0.12 | 63 | 1750 |  | 2.5 | 13.4 | 28 | 86 | 181 | CC(C)c1ccc(N2CC(NS(C)(=O)=O)C2)c2cnc(Nc3ccnc(N4CCC(C)(O)C(F)C4)n3)cc12 (stereo not drawn) [Compound P51]
11 | 11 | 0.19 | 38 | 2020 |  | 7.1 | 30.2 | 52 | 176 |  | CC(C)c1ccc(N2CC(CS(C)(=O)=O)C2)c2cnc(Nc3ccnc(N4CCC(O)C(F)C4)n3)cc12 (stereo not drawn) [Control A, reference compound]
